Read-outs that look alike come from different tables or passages of the source.
What was measured:
Type in all cases: in vivo
Setaria viridis (SETVI) [1] = test: Post-emergence herbicidal action against SETVI; conditions: dosage 320 g/ha
Summary of the method: (§1)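 Doses of 320 g/ha or lower, suffixes a, b and c marking different dosages, were applied post-emergence at the one-leaf stage in 600 l/ha water with 0.5% additive. Damage was assessed visually after about 3 weeks in the greenhouse.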

[2] = tested on: Triticum aestivum (TRZAS); conditions: pre-emergence, crop plant compatibility, in comparison to untreated controls
Summary of the method: (§2)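 Scoring: visual, % of untreated control, about 3 weeks after a pre-emergence application to the soil surface. Application used WP or EC formulations diluted in water with 0.5% additive at 600 l/ha; dosage levels are marked by suffixes a, b and c.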

Oryza sativa (ORYSA) [3] = conditions: pre-emergence, crop plant compatibility, in comparison to untreated controls
Summary of the method: as §2

Zea mays (ZEAMX) [4] = conditions: pre-emergence, 80 g/ha, crop plant compatibility, in comparison to untreated controls
Summary of the method: as §2

[5] = tested on: Pharbitis purpurea (PHBPU); test: Post-emergence herbicidal action against PHBPU
Summary of the method: as §1

[6] = tested on: Triticum aestivum (TRZAS); conditions: crop plant compatibility, effect vs untreated controls
Summary of the method: (§3)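 Percent effect on the crop was judged by eye against untreated controls, where 0% means like control and 100% means dead plants. Plants had been sprayed post-emergence at the one-leaf stage and then kept under optimum greenhouse conditions for about 3 weeks.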

Oryza sativa (ORYSA) [7] = conditions: crop plant compatibility
Summary of the method: as §3

Zea mays (ZEAMX) [8] = conditions: for Post-emergence action against ZEAMX in %: crop plant compatibility, effect vs untreated controls; for Post-emergence action against ZEAMX in % (crop plant compatibility): 20 g/ha, effect in comparison to untreated controls
Summary of the method: as §3

Viola tricolor (VIOTR) [9] = test: Pre-emergence herbicidal action against VIOTR
Summary of the method: (§4)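 Greenhouse pot trial: seeds sown, soil-covered, sprayed before emergence with compound in water (0.5% additive; 600 l/ha; ≤320 g/ha). Scoring visual, ~3 weeks, 0–100% scale vs untreated.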

[10] = tested on: Alopecurus myosuroides (ALOMY); test: Post-emergence herbicidal action against ALOMY; conditions: 80 g/ha, visual rating about 3 weeks after treatment vs untreated controls (100% = plants have died, 0% = like control plants)
Summary of the method: as §1

Viola tricolor (VIOTR) [11] = test: Post-emergence herbicidal action against VIOTR; conditions: 80 g/ha
Summary of the method: as §1

Setaria viridis (SETVI) [12] = test: Pre-emergence herbicidal action against SETVI
Summary of the method: as §4

Avena fatua (AVEFA) [13] = test: Pre-emergence herbicidal action against AVEFA; conditions: 320 g/ha, visual scoring after about 3 weeks vs untreated controls
Summary of the method: as §4

[14] = tested on: Echinochloa crus-galli (ECHCG); test: Pre-emergence herbicidal action against ECHCG; conditions: dosage 320 g/ha
Summary of the method: as §4

Brassica napus (BRSNW) = conditions: 80 g/ha, crop plant compatibility, in comparison to untreated controls
Summary of the method: as §2

[15] = tested on: Verconica persica (VERPE); test: Pre-emergence herbicidal action against VERPE
Summary of the method: as §4

Lolium rigidum (LOLRI) [16] = test: Pre-emergence herbicidal action against LOLRI; conditions: dosage 320 g/ha
Summary of the method: as §4

[17] = tested on: Amaranthus retroflexus (AMARE); test: Pre-emergence herbicidal action against AMARE; conditions: visual scoring after about 3 weeks vs untreated controls
Summary of the method: as §4

Lolium rigidum (LOLRI) [18] = test: Post-emergence herbicidal action against LOLRI; conditions: dosage 80 g/ha
Summary of the method: as §1

[19] = tested on: Alopecurus myosuroides (ALOMY); test: Pre-emergence herbicidal action against ALOMY; conditions: scored visually after about 3 weeks, 100% = plants have died
Summary of the method: as §4

Avena fatua (AVEFA) [20] = test: Post-emergence herbicidal action against AVEFA; conditions: 80 g/ha, visual rating about 3 weeks after treatment
Summary of the method: as §1

[21] = tested on: Echinochloa crus-galli (ECHCG); test: Post-emergence herbicidal action against ECHCG; conditions: dosage 80 g/ha
Summary of the method: as §1

[22] = tested on: Polygonum convolvulus (POLCO); test: Pre-emergence herbicidal action against POLCO
Summary of the method: as §4

[23] = tested on: Matricaria inodora (MATIN); test: Pre-emergence herbicidal action against MATIN; conditions: dosage 320 g/ha
Summary of the method: as §4

[24] = 80 g/ha, effect in comparison to untreated controls
[25] = 20 g/ha, effect vs untreated controls

| Pre-emergence action against ZEAMX in % (Zea mays (ZEAMX) [4]) [%] | Post-emergence action against ORYSA in % (Oryza sativa (ORYSA) [7]; [24]) [%] | Post-emergence action against ZEAMX in % (Zea mays (ZEAMX) [8]; 80 g/ha) [%] | Pre-emergence action against BRSNW in % (Brassica napus (BRSNW)) [%] | Post-emergence action against ORYSA in % (Oryza sativa (ORYSA) [7]; [25]) [%] | Post-emergence action against ZEAMX in % (crop plant compatibility) (Zea mays (ZEAMX) [8]) [%] | SMILES | Pre-emergence action against VIOTR in % (Viola tricolor (VIOTR) [9]; 320 g/ha, Viola tricolor) [%] | Pre-emergence action against VIOTR in % (Viola tricolor (VIOTR) [9]; dosage 80 g/ha) [%] | Post-emergence action against ALOMY in % [10] [%] | Pre-emergence action against SETVI in % (Setaria viridis (SETVI) [12]; dosage 320 g/ha) [%] | Pre-emergence action against AVEFA in % (Avena fatua (AVEFA) [13]) [%] | Pre-emergence action against ECHCG in % [14] [%] | Pre-emergence action against VERPE in % ([15]; dosage 320 g/ha) [%] | Pre-emergence action against LOLRI in % (Lolium rigidum (LOLRI) [16]) [%] | Pre-emergence action against AMARE in % ([17]; 320 g/ha) [%] | Post-emergence action against LOLRI in % (Lolium rigidum (LOLRI) [18]) [%] | Pre-emergence action against ALOMY ([19]; 320 g/ha) [%] | Post-emergence action against AVEFA in % (Avena fatua (AVEFA) [20]) [%] | other results |
| --- | --- | --- | --- | --- | --- | --- | --- | --- | --- | --- | --- | --- | --- | --- | --- | --- | --- | --- | --- |
| 20 | 0 | 0 |  |  |  | COC(=O)CNC(=O)COc1nn(-c2cccc(C)n2)c(-c2ccc(F)nc2)c1Br [Example I-357] |  |  |  |  |  |  |  |  |  |  |  |  | Post-emergence action against SETVI in % (Setaria viridis (SETVI) [1]): 80%; Pre-emergence action against TRZAS in % ([2]; 80 g/ha): 10%; Pre-emergence action against TRZAS in % ([2]; 320 g/ha): 10%; Pre-emergence action against ORYSA in % (Oryza sativa (ORYSA) [3]; 80 g/ha): 20%; Pre-emergence action against ORYSA in % (Oryza sativa (ORYSA) [3]; 320 g/ha): 20%; Post-emergence action against PHBPU in % ([5]; dosage 80 g/ha): 80%; Post-emergence action against PHBPU in % ([5]; dosage 320 g/ha): 80%; Post-emergence action against TRZAS in % ([6]; 80 g/ha): 10%; Post-emergence action against TRZAS in % ([6]; 320 g/ha): 10%; Post-emergence action against ORYSA in % (Oryza sativa (ORYSA) [7]; 320 g/ha, effect in comparison to untreated controls): 10%; Post-emergence action against ZEAMX in % (Zea mays (ZEAMX) [8]; 320 g/ha): 10% |
|  | 10 | 10 | 10 | 0 | 10 | CCOC(=O)C(C)Oc1nn(-c2ccccn2)c(-c2ccc(F)nc2)c1I (stereo not shown) [Example I-101] | 100 | 80 | 90 | 100 | 90 | 90 | 100 | 100 | 100 | 90 | 100 | 80 | Post-emergence action against VIOTR in % (Viola tricolor (VIOTR) [11]): 80%; Pre-emergence action against SETVI in % (Setaria viridis (SETVI) [12]; dosage 80 g/ha): 90% |
| 10 | 10 | 20 | 20 | 0 | 10 | COC(=O)[C@@H](C)Oc1nn(-c2ncccc2Cl)c(-c2ccc(F)nc2)c1Br [Example I-24] | 100 | 90 | 90 | 90 | 100 | 100 | 100 | 100 | 100 | 90 | 100 | 90 | Post-emergence action against ECHCG in % [21]: 80%; Pre-emergence action against POLCO in % ([22]; dosage 80 g/ha): 90%; Pre-emergence action against POLCO in % ([22]; dosage 320 g/ha): 90%; Pre-emergence action against VERPE in % ([15]; dosage 80 g/ha): 80%; Pre-emergence action against MATIN in % [23]: 90%; Pre-emergence action against AMARE in % ([17]; 80 g/ha): 90%; Pre-emergence action against ALOMY ([19]; 80 g/ha): 100% |
